The record followed here is US20190119251A1, “AMIDE-SUBSTITUTED ARYLTRIAZOLE DERIVATIVES AND USES THEREOF” (BAYER PHARMA AKTIENGESELLSCHAFT, priority 2016, published 2019).

pIC50: −log10 of the molar value.

In one experiment the target is T1, human V1a receptor (Homo sapiens, UniProt P37288).
T1 construct: expressed in transfected cells; host or cells: CHO K1 (Chinese hamster ovary), also stably transfected with modified aequorin
Description: Cellular in vitro assay for determining vasopressin receptor activity (V1a cell line, aequorin luminescence). In kind it is cell-based. As to conditions: for pIC50: CHO cell line transfected with the human V1a receptor, agonist [Arg8]-vasopressin at EC50 concentration, read-out: IC50 hV1a; for ratio IC50 hV2/hV1a: ratio of cellular IC50 values, human V2 over human V1a. The protocol:
(§1) B-1. Cellular In Vitro Assay for Determining Vasopressin Receptor Activity
(§2) The identification of agonists and antagonists of the V 1 a and V2 vasopressin receptors from humans, rats and dogs as well as the quantification of the activity of the compounds of the invention is carried out using recombinant cell lines. These cell lines originally derive from a hamster's ovary epithelial cell (Chinese Hamster Ovary, CHO K1, ATCC: American Type Culture Collection, Manassas, Va. 20108, USA). The test cell lines constitutively express the human, rat or dog
(§3) V1 a or V2 receptors. In case of the Gag-coupled V 1 a receptors, cells are also stably transfected with a modified form of the calcium-sensitive photoproteins aequorin (human and rat V1a) or obelin (dog V 1 a), which, after reconstitution with the cofactor coelenterazine, emit light when there are increases in free calcium concentrations [Rizzuto R, Simpson A W, Brini M, Pozzan T, Nature 358, 325-327 (1992); Illarionov B A, Bondar V S, Illarionova V A, Vysotski E S, Gene 153 (2), 273-274 (1995)]. The resulting vasopressin receptor cells react to stimulation of the recombinantly expressed V 1 a receptors by intracellular release of calcium ions, which can be quantified by the resulting photoprotein luminescence. The Gs-coupled V2 receptors are stably transfected into cell lines expressing the gene for firefly luciferase under control of a CRE-responsible promoter. Activation of V2 receptors induces the activation of the CRE-responsive promoter via cAMP increase, thereby inducing the expression of firefly luciferase. The light emitted by photoproteins of V1a cell lines as well as the light emitted by firefly luciferase of V2 cell lines corresponds to the activation or inhibition of the respective vasopressin receptor. The bioluminescence of the cell lines is detected using a suitable luminometer [Milligan G, Marshall F, Rees S, Trends in Pharmacological Sciences 17, 235-237 (1996)].
Vasopressin V1a Receptor Cell Lines:
On the day before the assay, the cells are plated out in culture medium (DMEM/F12, 2% FCS, 2 mM glutamine, 10 mM HEPES, 5 μg/ml coelenterazine) in 384-well microtiter plates and kept in a cell incubator (96% humidity, 5% v/v CO2, 37° C.). On the day of the assay, test compounds in various concentrations are placed for 10 minutes in the wells of the microtiter plate before the agonist [Arg^8]-vasopressin at EC50 concentration is added. The resulting light signal is measured immediately in a luminometer.
(§4) Table 1A below lists individual IC50 values for the compounds of the invention (including racemic mixtures as well as separated enantiomers) that were obtained from cell lines transfected with the human V1a or V2 receptor: […]

The next experiment deals with T2, human V2 receptor (Homo sapiens, UniProt P30518).
T2 construct: expressed in transfected cells; host or cells: CHO K1 (Chinese hamster ovary) expressing firefly luciferase under a CRE-responsive promoter
Description: Cellular in vitro assay for determining vasopressin receptor activity (V2 cell line, CRE-luciferase). In kind it is cell-based. Particulars: CHO cell line transfected with the human V2 receptor; agonist [Arg8]-vasopressin at EC50 concentration; 3 hours incubation; read-out: IC50 hV2. The protocol:
as §1, §2, §3
Vasopressin V2 Receptor Cell Lines:
On the day before the assay, the cells are plated out in culture medium (DMEM/F12, 2% FCS, 2 mM glutamine, 10 mM HEPES) in 384-well microtiter plates and kept in a cell incubator (96% humidity, 5% v/v CO2, 37° C.). On the day of the assay, test compounds in various concentrations and the agonist [Arg^8]-vasopressin at EC50 concentration are added together to the wells, and plates are incubated for 3 hours in a cell incubator. Upon addition of the cell lysis reagent Triton™ and the substrate luciferin, luminescence of firefly luciferase is measured in a luminometer.
as §4

T2 sequence (P30518 whole entry): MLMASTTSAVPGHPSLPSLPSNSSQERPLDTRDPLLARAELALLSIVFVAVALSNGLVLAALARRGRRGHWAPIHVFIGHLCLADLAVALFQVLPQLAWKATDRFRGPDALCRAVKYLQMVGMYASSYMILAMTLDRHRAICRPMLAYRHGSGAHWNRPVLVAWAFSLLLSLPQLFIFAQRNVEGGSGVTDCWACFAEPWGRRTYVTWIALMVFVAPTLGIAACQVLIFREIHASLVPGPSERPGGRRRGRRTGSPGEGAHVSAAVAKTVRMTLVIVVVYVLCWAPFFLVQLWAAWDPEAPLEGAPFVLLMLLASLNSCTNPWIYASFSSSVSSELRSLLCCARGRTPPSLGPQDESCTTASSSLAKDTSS
T1 sequence (P37288 whole entry): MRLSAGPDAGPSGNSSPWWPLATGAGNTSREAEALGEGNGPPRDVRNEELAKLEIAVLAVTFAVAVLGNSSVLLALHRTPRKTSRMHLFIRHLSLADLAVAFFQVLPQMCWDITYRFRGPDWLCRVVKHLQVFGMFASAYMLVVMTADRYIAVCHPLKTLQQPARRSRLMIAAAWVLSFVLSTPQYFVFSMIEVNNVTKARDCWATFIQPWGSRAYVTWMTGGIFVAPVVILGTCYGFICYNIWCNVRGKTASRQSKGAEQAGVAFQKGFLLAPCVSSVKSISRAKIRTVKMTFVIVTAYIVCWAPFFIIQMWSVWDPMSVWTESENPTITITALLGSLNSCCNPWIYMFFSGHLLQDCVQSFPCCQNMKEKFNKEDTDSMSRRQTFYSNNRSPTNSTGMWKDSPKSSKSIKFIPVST

As to `NC(=O)c1nc(Cn2nc(-c3ccc(Cl)cc3)n(C[C@H](O)C(F)(F)F)c2=O)nn1-c1ncccn1` [Example 16, 3-({3-(4-Chlorophenyl)-5-oxo-4-[(2S)-3,3,3-trifluoro-2-hydroxypropyl]-4,5-dihydro-1H-1,2,4-triazol-1-yl}methyl)-1-(pyrimidin-2-yl)-1H-1,2,4-triazole-5-carboxamide], at human V1a receptor, the pIC50 was 6.16 and the “ratio IC50 hV2/hV1a” value came to 3.3. In addition, the pIC50 at human V2 receptor was 5.65.

As to `NC(=O)c1nc(Cn2nc(-c3ccc(Cl)cc3)n(C[C@H](O)C(F)(F)F)c2=O)nn1-c1ccccc1Br` [Example 17, 1-(2-Bromophenyl)-3-({3-(4-chlorophenyl)-5-oxo-4-[(2S)-3,3,3-trifluoro-2-hydroxypropyl]-4,5-dihydro-1H-1,2,4-triazol-1-yl}methyl)-1H-1,2,4-triazole-5-carboxamide], at human V1a receptor, the pIC50 was 9.35 and the “ratio IC50 hV2/hV1a” value came out at 15.6. In addition, the negative logarithm of the IC50 (pIC50) at human V2 receptor is 8.15.

Turning to `CSc1ccccc1-n1nc(Cn2nc(-c3ccc(Cl)cc3)n(C[C@H](O)C(F)(F)F)c2=O)nc1C(N)=O` [Example 18, 3-({3-(4-Chlorophenyl)-5-oxo-4-[(2S)-3,3,3-trifluoro-2-hydroxypropyl]-4,5-dihydro-1H-1,2,4-triazol-1-yl}methyl)-1-[2-(methylsulfanyl)phenyl]-1H-1,2,4-triazole-5-carboxamide], at human V1a receptor, the pIC50 is 9.27 and the “ratio IC50 hV2/hV1a” value is 3.1. Further, the pIC50 on human V2 receptor is 8.78.

`Cc1ccccc1-n1nc(Cn2nc(-c3ccc(Cl)cc3)n(C[C@H](O)C(F)(F)F)c2=O)nc1C(N)=O` [Example 19, 3-({3-(4-Chlorophenyl)-5-oxo-4-[(2S)-3,3,3-trifluoro-2-hydroxypropyl]-4,5-dihydro-1H-1,2,4-triazol-1-yl}methyl)-1-(2-methylphenyl)-1H-1,2,4-triazole-5-carboxamide]: the pIC50 at human V1a receptor was 9.19; at human V2 receptor, 8.31. Further, the “ratio IC50 hV2/hV1a” value on human V1a receptor came to 7.5.

`CCc1ccccc1-n1nc(Cn2nc(-c3ccc(Cl)cc3)n(C[C@H](O)C(F)(F)F)c2=O)nc1C(N)=O` [Example 20, 3-({3-(4-Chlorophenyl)-5-oxo-4-[(2S)-3,3,3-trifluoro-2-hydroxypropyl]-4,5-dihydro-1H-1,2,4-triazol-1-yl}methyl)-1-(2-ethylphenyl)-1H-1,2,4-triazole-5-carboxamide]: at human V1a receptor, the pIC50 is 9.12 and the “ratio IC50 hV2/hV1a” value turned out to be 3.7. For the same compound, on human V2 receptor, the pIC50 was 8.56.

For the compound `NC(=O)c1nc(Cn2nc(-c3ccc(Cl)cc3)n(C[C@H](O)C(F)(F)F)c2=O)nn1-c1c(F)cccc1Cl` [Example 21, 1-(2-Chloro-6-fluorophenyl)-3-({3-(4-chlorophenyl)-5-oxo-4-[(2S)-3,3,3-trifluoro-2-hydroxypropyl]-4,5-dihydro-1H-1,2,4-triazol-1-yl}methyl)-1H-1,2,4-triazole-5-carboxamide], at human V1a receptor, the pIC50 is 9.12 and the “ratio IC50 hV2/hV1a” value is recorded as 7.0. Further, the pIC50 on human V2 receptor was 8.28.

Turning to `NC(=O)c1nc(Cn2nc(-c3ccc(Cl)cc3)n(C[C@H](O)C(F)(F)F)c2=O)nn1-c1c(Cl)cccc1Cl` [Example 22, 3-({3-(4-Chlorophenyl)-5-oxo-4-[(2S)-3,3,3-trifluoro-2-hydroxypropyl]-4,5-dihydro-1H-1,2,4-triazol-1-yl}methyl)-1-(2,6-dichlorophenyl)-1H-1,2,4-triazole-5-carboxamide], at human V1a receptor, the negative logarithm of the IC50 (pIC50) is 8.78 and the “ratio IC50 hV2/hV1a” value was 2.2. In addition, the negative logarithm of the IC50 (pIC50) on human V2 receptor was 8.44.

On to `Cc1cccc(C)c1-n1nc(Cn2nc(-c3ccc(Cl)cc3)n(C[C@H](O)C(F)(F)F)c2=O)nc1C(N)=O` [Example 23, 3-({3-(4-Chlorophenyl)-5-oxo-4-[(2S)-3,3,3-trifluoro-2-hydroxypropyl]-4,5-dihydro-1H-1,2,4-triazol-1-yl}methyl)-1-(2,6-dimethylphenyl)-1H-1,2,4-triazole-5-carboxamide], for which the values for the pIC50 at human V1a receptor and on human V2 receptor were 8.61 and 8.60, respectively. Moreover, the “ratio IC50 hV2/hV1a” value on human V1a receptor came to 1.0.

For the compound `NC(=O)c1nc(Cn2nc(-c3ccc(Cl)cc3)n(C[C@H](O)C(F)(F)F)c2=O)nn1-c1ccccc1[N+](=O)[O-]` [Example 24, 3-({3-(4-Chlorophenyl)-5-oxo-4-[(2S)-3,3,3-trifluoro-2-hydroxypropyl]-4,5-dihydro-1H-1,2,4-triazol-1-yl}methyl)-1-(2-nitrophenyl)-1H-1,2,4-triazole-5-carboxamide], at human V1a receptor, the pIC50 is 8.59 and the “ratio IC50 hV2/hV1a” value is on record as 11.7. In addition, the pIC50 on human V2 receptor was 7.52.

With `NC(=O)c1nc(Cn2nc(-c3ccc(Cl)cc3)n(C[C@H](O)C(F)(F)F)c2=O)nn1-c1c(F)cccc1F` [Example 25, 3-({3-(4-Chlorophenyl)-5-oxo-4-[(2S)-3,3,3-trifluoro-2-hydroxypropyl]-4,5-dihydro-1H-1,2,4-triazol-1-yl}methyl)-1-(2,6-difluorophenyl)-1H-1,2,4-triazole-5-carboxamide], the pIC50 at human V1a receptor was 8.53; on human V2 receptor, 8.19. Also, the “ratio IC50 hV2/hV1a” value at human V1a receptor stood at 2.2.

Turning to `NC(=O)c1nc(Cn2nc(-c3ccc(Cl)cc3)n(C[C@H](O)C(F)(F)F)c2=O)nn1-c1ccc(F)cc1Cl` [Example 26, 1-(2-Chloro-4-fluorophenyl)-3-({3-(4-chlorophenyl)-5-oxo-4-[(2S)-3,3,3-trifluoro-2-hydroxypropyl]-4,5-dihydro-1H-1,2,4-triazol-1-yl}methyl)-1H-1,2,4-triazole-5-carboxamide], on human V1a receptor, the pIC50 was 8.46 and the “ratio IC50 hV2/hV1a” value is on record as 4.9. The pIC50 at human V2 receptor is 7.77.

Consider `NC(=O)c1nc(Cn2nc(-c3ccc(Cl)cc3)n(C[C@H](O)C(F)(F)F)c2=O)nn1-c1ccccc1OC(F)F` [Example 27, 3-({3-(4-Chlorophenyl)-5-oxo-4-[(2S)-3,3,3-trifluoro-2-hydroxypropyl]-4,5-dihydro-1H-1,2,4-triazol-1-yl}methyl)-1-[2-(difluoromethoxy)phenyl]-1H-1,2,4-triazole-5-carboxamide], for which, on human V1a receptor, the pIC50 was 8.35 and the “ratio IC50 hV2/hV1a” value worked out at 9.3. In addition, on human V2 receptor, the pIC50 is 7.38.

Consider `CC(C)c1ccccc1-n1nc(Cn2nc(-c3ccc(Cl)cc3)n(C[C@H](O)C(F)(F)F)c2=O)nc1C(N)=O` [Example 28, 3-({3-(4-Chlorophenyl)-5-oxo-4-[(2S)-3,3,3-trifluoro-2-hydroxypropyl]-4,5-dihydro-1H-1,2,4-triazol-1-yl}methyl)-1-(2-isopropylphenyl)-1H-1,2,4-triazole-5-carboxamide], for which the pIC50 at human V1a receptor is 8.31; on human V2 receptor it was 7.19. Further, at human V1a receptor, the “ratio IC50 hV2/hV1a” value stood at 13.3.

For `NC(=O)c1nc(Cn2nc(-c3ccc(Cl)cc3)n(C[C@H](O)C(F)(F)F)c2=O)nn1-c1ccccc1F` [Example 29, 3-({3-(4-Chlorophenyl)-5-oxo-4-[(2S)-3,3,3-trifluoro-2-hydroxypropyl]-4,5-dihydro-1H-1,2,4-triazol-1-yl}methyl)-1-(2-fluorophenyl)-1H-1,2,4-triazole-5-carboxamide], the pIC50 on human V1a receptor is 7.88; at human V2 receptor, 7.62. Besides, at human V1a receptor, the “ratio IC50 hV2/hV1a” value is recorded as 1.8.

Usually pIC50 stands for the IC50 on a negative log10 scale, so that one unit is a factor of ten.
